Columns and labels:
DMPK [1] = experiment: Dose response of antisense oligonucleotides in DMPK knockdown in human DM1 myotubes; type: cell-based
Source text: FIGS. 18A-18C depict non-limiting schematics showing the dose response of selected antisense oligonucleotides in DMPK knockdown in human DM1 myotubes. ControlDMPK-ASO was used as control. […] Statistical analysis: One-way ANOVA with Tukey's HSD post-hoc test vs. control DMPK-ASO treatment; *p<0.05, **p<0.01, ***p<0.001, ****p<0.0001.
(§1) The antisense oligonucleotides listed in Table 11 were further assessed to identify oligos that are safe in vivo (e.g., as indicated by low immunogenicity as measured by cytokine induction), and further based on manufacturability and secondary structure considerations. Three antisense oligonucleotides from Table 11, […] (SEQ ID NO: 310, DMPK-ASO-1), […] (SEQ ID NO: 320, DMPK-ASO-2), and […] (SEQ ID NO: 278, DMPK-ASO-3) were selected. These oligonucleotides were then further evaluated for their ability to reduce DMPK expression in DM1 myotubes and NHP myotubes in a dose-responsive manner. The tool compound (control DMPK-ASO) was used as control.

DMPK [2] = experiment: Dose response of antisense oligonucleotides in DMPK knockdown in NHP myotubes; type: cell-based, non-human primate
Source text: FIGS. 19A-19B depict non-limiting schematics showing the dose response of selected antisense oligonucleotides in DMPK knockdown in non-human primate (NHP) DM1 myotubes. Control DMPK-ASO was used as control.
as §1

DMPK [3] = experiment: DMPK expression in RD cells treated with free or transfected DMPK-targeting oligonucleotides; type: cell-based; settings: free (gymnotic) or transfected, 3 days
Method: The duration of treatment was 3 days. DMPK-targeting oligonucleotides were delivered to the cells as free oligonucleotides (gymnotic uptake, “free”) or with transfection reagent (“trans”).
DMPK-targeting oligonucleotides (e.g., ASO) were tested in rhabdomyosarcoma (RD) cells for knockdown of DMPK transcript expression. RD cells were cultured in a growth medium of DMEM with glutamine, supplemented with 10% FBS and penicillin/streptomycin until nearly confluent. Cells were then seeded into a 96 well plate at 20K cells per well and were allowed to recover for 24 hours. Cells were then treated with free DMPK-targeting oligonucleotides or by transfection of the oligonucleotides using 0.3 μL per well of Lipofectamine MessengerMAX transfection reagent. After 3 days, total RNA was collected from cells, cDNA was synthesized and DPMK expression was measured by qPCR.

C2C12 murine myotubes = settings: in vitro, phage display; cited from earlier work
mouse muscle tissue = settings: cited from earlier work

| Substance | DMPK knockdown in DM1 myotubes (DMPK [1]) | DMPK knockdown in NHP myotubes (DMPK [2]) | DMPK expression level relative to PBS-treated cells (DMPK [3]) | binding to C2C12 cells (C2C12 murine myotubes) | specificity for binding to heart and skeletal muscle tissue (mouse muscle tissue; after intravenous injection in mice, reduced binding to liver, kidney, and brain) | binding to mouse muscle tissue (mouse muscle tissue; in vivo) |
| --- | --- | --- | --- | --- | --- | --- |
| CCCAGCGCCCACCAGUCACA (chemistry not given here) [SEQ ID NO: 320, DMPK-targeting antisense oligonucleotide] | dose-dependently reducing DMPK | dose-dependently reducing DMPK | reduced | – | – | – |
| GCGUAGAAGGGCGUCUGCCC (chemistry not given here) [SEQ ID NO: 310, DMPK-targeting antisense oligonucleotide] | dose-dependently reducing DMPK | dose-dependently reducing DMPK | reduced | – | – | – |
| SKTFNTHPQSTP [12 amino acid muscle-targeting peptide identified by phage display] | – | – | – | improved binding to C2C12 cells relative to the ASSLNIA | – | – |
| CCAUCUCGGCCGGAAUCCGC (chemistry not given here) [SEQ ID NO: 278, DMPK-targeting antisense oligonucleotide] | dose-dependently reducing DMPK | dose-dependently reducing DMPK | reduced | – | – | – |
| ASSLNIA [muscle-specific heptapeptide identified by phage display] | – | – | – | bound to C2C12 murine myotubes in vitro | improved specificity for binding to heart and skeletal muscle tissue | bound to mouse muscle tissue in vivo |
